The test system of series [1] is Plasmodium falciparum parasites (3D7 strain). Kind of series: SYBR Green based parasite proliferation assay (antimalarial activity). It counts as cell-based.
The subject of series [2] is heme crystallization. Kind of series: Inhibition of heme crystallization. The series is classed as biochemical. Particulars: molar equivalents of drug to heme.
In series [3] the test system is Plasmodium falciparum HB3 (chloroquine-sensitive parasite). The note with it: from Hawley et al. (Antimicrob Agents Chemother 1998, 42: 682); cited from earlier work.
The subject of series [4] is Plasmodium falciparum parasites (3D7 strain). The note with it: from Hawley et al. (Antimicrob Agents Chemother 1998, 42: 682); cited from earlier work.
The nature of series [5]: Cytotoxicity, Vero. It counts as cell-based. The note with it: African green monkey, Vero cells.
Series [6] in a line: Cytotoxicity, HepG2. The series is classed as cell-based. Particulars: human, HepG2 cells.
Series [7] can be described thus: Cytotoxicity, J774. It counts as cell-based. Particulars: mouse, J774 cells.
For series [8], the system named is Plasmodium falciparum Dd2 (chloroquine-resistant parasite). Put plainly: Efficacy against Plasmodium falciparum Dd2. The series is classed as cell-based.
Series [9] concerns Plasmodium falciparum HB3 (chloroquine-sensitive parasite). Kind of series: Efficacy against Plasmodium falciparum HB3. It counts as cell-based.
Setting [10] is: Plasmodium falciparum, 3D7, Table 5, Example 5 numbering (1-13), read-out: P. falciparum (3D7) IC50.
Setting [11] is: Plasmodium falciparum, 3D7, Table 1, Example 1 numbering (1-18), read-out: Antimalarial IC50.

Where two headings read alike, the source gives them in different places.

Regarding `CC1=C2Cc3cc(ccc3O)C(=O)O[C@H](C(C)(C)Br)CC[C@](C)(O)/C=C\C[C@]2(C)C=CC1` [Compound 11], in [1] (setting [10]), the IC50 is 4.6 µM.

On to `C=C1CC[C@H](Br)[C@@]2(C)CC[C@@H]3O[C@@]3(C)CC[C@@H](C(C)(C)O)OC(=O)c3ccc(O)c(c3)C[C@H]12` [Compound 14], for which the IC50 in series [1] (setting [11]) amounted to 18 µM.

Consider “debromophycolide A [Compound 18 (Example 1)]”, for which the IC50 in series [1] (Table 4, Example 3 numbering (1-3), read-out: Antimalarial activity IC50) is greater than 100 µM.

Turning to `CCN(CC)Cc1cc(Nc2ccnc3cc(Cl)ccc23)ccc1O` [AMQ, amodiaquine], in series [2], the “IC50 for heme crystallization” value was 1.2 ± 0.19 equivalents. Further, the IC50 in [3] was 0.0085 µM; in series [4] it was 0.0078 µM.

In the case of `CC1=CC[C@@H]2O[C@@]2(C)CC[C@@H](C(C)(C)O)OC(=O)c2ccc(O)c(c2)CC2=C(C)CCC12` (stereo partly shown) [Compound 18], the IC50 in series [1] (setting [11]) is greater than 100 µM.

For `CC1=C2Cc3cc(ccc3O)C(=O)O[C@H](C(C)(C)Br)CC[C@](C)(O)[C@H](Br)CC[C@]2(C)[C@@H](Br)CC1` [Compound 1], the IC50 stood at 34.6 µM in series [5]; 21.3 µM in series [6]; 19 µM in series [7]; 0.65 µM in series [1] (setting [10]); 0.658 µM in [1] (Plasmodium falciparum, 3D7, chloroquine-sensitive parasite, Table 6, Example 5 numbering, read-out: 3D7 IC50); 0.66 µM in series [1] (Table 5, Example 5 numbering (1-13), read-out: P. falciparum (3D7) IC50). The figures for the IC50 in series [8] and in [9] were 0.497 µM and 0.565 µM, respectively. Also, the “IC50 for heme crystallization” value in [2] is listed as 2.5 ± 0.13 equivalents.

A word on the IC50: it is the concentration that gives 50% inhibition.

These data come from US8481757B2, “Compounds and compositions useful in the treatment of malaria” (Georgua Tech Research Corporation, priority 2010, dated 2013).
